Patent US20090048190A1, “Antiviral activity and resolution of 2-hydroxymethyl-5(5-fluorocytosin-1-yl)-1,3-oxathiolane” (priority 1990, published 2009)
Where “and” joins values, the source holds several entries; their conditions need not be identical. Identical values can stand only once. Like-named read-outs stand apart in the source and are kept apart here.

Tests used:
HIV-1 (strain LAV) = assay type: cell-based
Source text: It is often desirable to screen a number of racemic mixtures of nucleosides as a preliminary step to determine which warrant further resolution into enantiomerically enriched components and further evaluation of antiviral activity. The ability of nucleosides to inhibit HIV can be measured by various experimental techniques. The technique used herein, and described in detail below, measures the inhibition of viral replication in phytohemagglutinin (PHA) stimulated human peripheral blood mononuclear (PBM) cells infected with HIV-1 (strain LAV). The amount of virus produced is determined by measuring the virus-coded reverse transcriptase enzyme. The amount of enzyme produced is proportional to the amount of virus produced.
A. Three-day-old phytohemagglutinin-stimulated PBM cells (10^6 cells/ml) from hepatitis B and HIV-1 seronegative healthy donors were infected with HIV-1 (strain LAV) at a concentration of about 100 times the 50% tissue culture infectious dose (TICD 50) per ml and cultured in the presence and absence of various concentrations of antiviral compounds.
B. Approximately one hour after infection, the medium, with the compound to be tested (2 times the final concentration in medium) or without compound, was added to the flasks (5 ml; final volume 10 ml). AZT was used as a positive control.
C. The cells were exposed to the virus (about 2×10^5 dpm/ml, as determined by reverse transcriptase assay) and then placed in a CO2 incubator. HIV-1 (strain LAV) was obtained from the Center for Disease Control, Atlanta, Ga. The methods used for culturing the PBM cells, harvesting the virus and determining the reverse transcriptase activity were those described by McDougal et al. (J. Immun. Meth. 76, 171-183, 1985) and Spira et al. (J. Clin. Meth. 25, 97-99, 1987), except that fungizone was not included in the medium (see Schinazi, et al., Antimicrob. Agents Chemother. 32, 1784-1787 (1988); Id., 34:1061-1067 (1990)).
D. On day 6, the cells and supernatant were transferred to a 15 ml tube and centrifuged at about 900 g for 10 minutes. Five ml of supernatant were removed and the virus was concentrated by centrifugation at 40,000 rpm for 30 minutes (Beckman 70.1 Ti rotor). The solubilized virus pellet was processed for determination of the levels of reverse transcriptase. Results are expressed in dpm/ml of sampled supernatant. Virus from smaller volumes of supernatant (1 ml) can also be concentrated by centrifugation prior to solubilization and determination of reverse transcriptase levels.

[1] = test system: uninfected human PBM cells
Source text: The cells were counted after 6 days using a hemacytometer and the trypan blue exclusion method, as described by Schinazi et al., Antimicrobial Agents and Chemotherapy, 22(3), 499 (1982).

HIV-2 = test: Antiretroviral activity in different cell systems, HIV-2; assay type: cell-based; conditions: PBMC (ROD2)
Protocol: Cell lines were obtained from either human donors, AIDS Research and Reference Reagent Program, NIH, Rockville, Md., ATCC, or the Red Cross. The CEM thymidine kinase deficient cells were prepared by sequential passage of CEM cells in the presence of 5-bromo-2′-deoxyuridine.

HIV [2] = conditions: compared with AZT; cited from earlier work
[3] = test system: AZT-resistant HIV isolates; conditions: in vitro, isolates from patients treated with AZT for longer than 36 weeks; cited from earlier work
HIV [4] = test: microbe, parasite or virus in culture; assay type: cell-based; conditions: Human immunodeficiency virus 1; MT4 system
[5] = CSF/serum ratio in rhesus monkeys; assay type: in vivo; conditions: 1 hour after treatment
[6] = molecular target: T1, HIV-1 reverse transcriptase (RT) (Human immunodeficiency virus type 1 group M subtype B, UniProt P04585); test: Inhibition of HIV-1 reverse transcriptase by FTC triphosphate; assay type: biochemical; conditions: sequencing analysis, HIV-RT (C-stops)
T1 construct: HIV-1 reverse transcriptase (RT)
Protocol: Toxicity and pharmacokinetic studies confirm the usefulness of FTC as an antiviral agent for pharmaceutical administration. FTC and its enantiomers are nontoxic to peripheral human bone marrow cells at concentrations up to 50 µM and other cell lines at concentrations up to 200 μM. FTC-TP is a major intracellular metabolite in PBMC and HepG2 cells.

human PBM cells = test: Egress of radiolabeled FTC from human PBM cells; assay type: in vitro ADME; conditions: human PBM cells after 24 h pulse with 10 μM
Protocol: This study measures the time needed for intracellular levels of triphosphates to decline. Studies were conducted in duplicate. Uninfected cells (2×10^6 ml) were suspended in the appropriate medium supplemented with serum (10 ml per timepoint) and incubated at 37° C. in a 5% CO2 incubator. The radiolabeled FTC concentration was 10 μM. After pulsing the cells with the labeled compound for 24 hours, the cells were thoroughly washed and then replenished with fresh medium without the antiviral drugs (0 hr). At 0, 2, 4, 6, 12, 24, and 48 hours (second incubation time), the cells were removed, and immediately extracted with 60% cold methanol/water. The extract was obtained by centrifugation and removal of the cell pellet. The extracts were lyophilized and then stored at −70° C. Prior to analysis, the material was resuspended in 250 microliters of HPLC buffer and immediately analyzed. Quantitation of intracellular parent drug and metabolic derivatives was conducted by HPLC, using either a Micromeritics or Hewlett-Packard model 1090 PHLC system with an anion exchange Partisil 10 SAX column (Whatman, Inc.), at a flow rate of 1 ml/min, 1 kpsi pressure, with UV detection at 262 nm. The mobile phase consisted of deionized water (A), 2 mM NaH2PO4/16 mM NaOAc (pH=6.6) (B), 15 mM NaH2PO4/120.2 mM NaOAc (pH=6.6) (C), and 100 mM NaH2PO4/800 mM NaOAc (pH=6.6) (D). […]

[7] = human PBM cells, HIV-1 strain LAV, Table 3, read-out: Antiviral EC50
[8] = PBM cells, procedure similar to Example 6, read-out: EC50
[9] = enantiomers resolved by HPLC (Example 4), Table 4, read-out: EC50

O=c1[nH]c(=O)n([C@H]2CS[C@@H](CO)O2)cc1F [DLS-027]
EC50 (HIV-1 (strain LAV); [7]): > 100 µM | IC50 [1]: > 100 µM

CC(=O)Nc1nc(=O)n(C2CSC(CO)O2)cc1F (racemic) [N′-acetyl derivative of (±)-FTC]
EC50 (HIV-1 (strain LAV); [8]): 0.0028 µM

Nc1nc(=O)n(C2CSC(CO)O2)cc1F (single isomer, unassigned; (-)) [(−)-FTC, (−)-β-L-2-hydroxymethyl-5-(5-fluorocytosin-1-yl)-1,3-oxathiolane]
DPM/ml (HIV-1 (strain LAV); 0.001 μM): 76,275 DPM/ml | DPM/ml (HIV-1 (strain LAV); 0.005 μM): 58,590 DPM/ml | DPM/ml (HIV-1 (strain LAV); 0.01 μM): 75,350 DPM/ml | DPM/ml (HIV-1 (strain LAV); 0.05 μM): 28,890 DPM/ml | DPM/ml (HIV-1 (strain LAV); 0.1 μM): 13,175 DPM/ml | DPM/ml (HIV-1 (strain LAV); 0.5 μM): 9,485 DPM/ml | EC50 (HIV-1 (strain LAV); [9]): 0.02 µM | EC50 (HIV-1 (strain LAV); [7]): 0.008 µM | IC50 [1]: > 100 µM | EC50 (HIV-2): 0.0007 µM

CCCC(=O)OC[C@@H]1O[C@H](n2cc(F)c(N)nc2=O)CS1 (racemic) [5′-O-butyrate ester of (±)-FTC]
EC50 (HIV-1 (strain LAV); [8]): 0.0017 µM

Cc1cn([C@H]2CS[C@@H](CO)O2)c(=O)nc1N [DLS-011]
EC50 (HIV-1 (strain LAV); [7]): > 10 µM

Nc1ccn(C2CSC(CO)O2)c(=O)n1 (racemic) [(±)-BCH-189, 2-hydroxymethyl-5-(cytosin-1-yl)-1,3-oxathiolane]
activity against HIV (HIV [2]): approximately the same activity against HIV as AZT | inhibition of replication of AZT-resistant HIV isolates [3]: inhibit the replication of AZT-resistant HIV isolates

Nc1nc(=O)n([C@@H]2CS[C@H](CO)O2)cc1C(F)(F)F [DLS-053]
EC50 (HIV-1 (strain LAV); [7]): 60.7 µM

Nc1nc(=O)n([C@H]2CS[C@@H](CO)O2)cc1I [DLS-026]
EC50 (HIV-1 (strain LAV); [7]): 0.72 µM

O=c1[nH]c(=O)n([C@H]2CS[C@@H](CO)O2)cc1Cl [DLS-028]
EC50 (HIV-1 (strain LAV); [7]): 60.8 µM

O=c1[nH]c(=O)n([C@H]2CS[C@@H](CO)O2)cc1Br [DLS-044]
EC50 (HIV-1 (strain LAV); [7]): > 100 µM | IC50 [1]: > 100 µM

Cc1cn([C@H]2C[C@H](N=[N+]=[N-])[C@@H](CO)O2)c(=O)[nH]c1=O [AZT, 3′-azido-3′-deoxythymidine, reference compound]
IC50 (HIV [4]): 0.09 µM

Nc1nc(=O)n([C@H]2CS[C@@H](CO)O2)cc1Br [DLS-021]
EC50 (HIV-1 (strain LAV); [7]): 77.4 µM

Cc1cn(C2CSC(CO)O2)c(=O)[nH]c1=O (stereo not shown) [DLS-010]
EC50 (HIV-1 (strain LAV); [7]): 64.4 µM

O=c1[nH]c(=O)n(C2CSC(CO)O2)cc1F (stereo not shown) [FTU]
CSF/Serum Ratio of deaminated metabolite (FTU) ([5]; I.V. FTC 33.3 mg/kg, individual monkeys): 0.024 and 0.032 and 0.052 | CSF/Serum Ratio of deaminated metabolite (FTU) ([5]; I.V. FTC 33.3 mg/kg, mean): 0.036 | CSF/Serum Ratio of deaminated metabolite (FTU) ([5]; P.O. FTC 33.3 mg/kg, individual monkeys): 0.026 and 0.037 and 0.055 | CSF/Serum Ratio of deaminated metabolite (FTU) ([5]; P.O. FTC 33.3 mg/kg, mean): 0.039

Nc1nc(=O)n([C@@H]2CS[C@H](COP(=O)(O)OP(=O)(O)OP(=O)(O)O)O2)cc1F (racemic) [FTC-TP]
DNA chain termination [6]: potent DNA chain terminator | intracellular half-life (human PBM cells): approximately 12 hours

Nc1nc(=O)n([C@H]2CS[C@@H](CO)O2)cc1F [(+)-FTC, (+)-β-D-2-hydroxymethyl-5-(5-fluorocytosin-1-yl)-1,3-oxathiolane]
% Inhibition (Corrected) (HIV-1 (strain LAV); 0.001 μM): 3.8% | DPM/ml (HIV-1 (strain LAV); 0.001 μM): 94,340 DPM/ml | % Inhibition (Corrected) (HIV-1 (strain LAV); 0.005 μM): −10.6% | DPM/ml (HIV-1 (strain LAV); 0.005 μM): 107,430 DPM/ml | % Inhibition (Corrected) (HIV-1 (strain LAV); 0.01 μM): −1.8% | DPM/ml (HIV-1 (strain LAV); 0.01 μM): 99,465 DPM/ml | % Inhibition (Corrected) (HIV-1 (strain LAV); 0.05 μM): 11.8% | DPM/ml (HIV-1 (strain LAV); 0.05 μM): 87,120 DPM/ml | % Inhibition (Corrected) (HIV-1 (strain LAV); 0.1 μM): 12.7% | DPM/ml (HIV-1 (strain LAV); 0.1 μM): 86,340 DPM/ml | % Inhibition (Corrected) (HIV-1 (strain LAV); 0.5 μM): 71.4% | DPM/ml (HIV-1 (strain LAV); 0.5 μM): 33,225 DPM/ml | EC50 (HIV-1 (strain LAV); [9]): 0.28 µM | EC50 (HIV-1 (strain LAV); enantiomers resolved by method of Example 3, FIG. 6, read-out: EC50): 0.84 µM | IC50 [1]: > 100 µM | EC50 (HIV-2): 0.026 µM

O=c1[nH]c(=O)n([C@H]2CS[C@@H](CO)O2)cc1I [DLS-029]
EC50 (HIV-1 (strain LAV); [7]): > 100 µM | IC50 [1]: > 100 µM

Nc1nc(=O)n([C@H]2CS[C@@H](CO)O2)cc1Cl [DLS-023]
EC50 (HIV-1 (strain LAV); [7]): 38.7 µM

O=c1ccn(C2CSC(CO)O2)c(=O)[nH]1 (stereo not shown) [DLS-009]
EC50 (HIV-1 (strain LAV); [7]): > 100 µM | IC50 [1]: > 100 µM
